Measurements from US9521847B2, “Synergistic weed control from applications of pyridine carboxylic acid herbicides and synthetic auxin herbicides and/or auxin transport inhibitors” (Dow AgroSciences LLC, priority 2014, dated 2016).
Read-outs that look alike come from different tables or passages of the source.

Key:
[1] = tested on: nutsedge (Cyperus esculentus, CYPES); experiment: Greenhouse postemergence trial, % visual injury; type: in vivo; conditions: for pest or weed control at 5 g/ha: Cyperus, post-emergence, 5 g ae/ha alone, 20-22 d, read-out: % visual injury Obs
[2] = tested on: wild buckwheat (Polygonum convolvulus, POLCO); experiment: Greenhouse postemergence trial, % visual injury; type: in vivo; conditions: for % visual injury Obs: 5 g ae/ha alone, 20-22 d
[3] = tested on: Canadian thistle (CIRAR, Cirsium arvense); experiment: Greenhouse postemergence trial, % visual injury; conditions: for pest or weed control at 5 g/ha / pest or weed control at 400 g/ha: Cirsium arvense, post-emergence; for pest or weed control at 5 g/ha: read-out: % visual injury Obs; for % visual injury, Obs: CIRAR;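 as to all read-outs here: plants sprayed at second to third true leaf stage, injury scored visually 20-22 d later against solvent-blank sprayed controls, 0 meaning no injury and 100 complete kill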
[4] = tested on: spring rape (Brassica napus, BRSNN); experiment: Greenhouse postemergence trial, % visual injury; conditions: Brassica napus, post-emergence; for plant injury at 5 g/ha: read-out: % visual injury Obs
[5] = tested on: poinsettia (Euphorbia heterophylla, EPHHL); experiment: Greenhouse postemergence trial, % visual injury; conditions: for pest or weed control at 5 g/ha: read-out: % visual injury Obs, 5 g ae/ha alone, 20-22 d
[6] = tested on: wild pansy (Viola tricolor, VIOTR); experiment: Greenhouse postemergence trial, % visual injury; conditions: for pest or weed control at 5 g/ha: Viola tricolor, post-emergence, read-out: % visual injury Obs; for % visual injury, Obs: VIOTR
winter wheat (TRZAW) = experiment: Greenhouse postemergence trial, crop phytotoxicity (% visual injury); conditions: for % visual injury Obs: crop, 5 g ae/ha alone, 20-22 d; for % visual injury, Obs: TRZAW
maize (ZEAMX) = experiment: as above; conditions: for % visual injury Obs: crop, 5 g ae/ha alone, 20-22 d
[7] = tested on: common lambsquarters (CHEAL, Chenopodium album L.); experiment: Greenhouse postemergence trial, % visual injury; type: in vivo; conditions: Chenopodium album, post-emergence; 5 g ae/ha alone; 20-22 d; read-out: % visual injury Obs
[8] = tested on: velvetleaf (Abutilon theophrasti, ABUTH); experiment: Greenhouse postemergence trial, % visual injury; type: in vivo; conditions: for % visual injury Obs: 5 g ae/ha alone, 20-22 d
[9] = tested on: grain sorghum (Sorghum vulgare, SORVU); experiment: Greenhouse postemergence trial, % visual injury; type: in vivo; conditions: for % visual injury Obs: 5 g ae/ha alone, 20-22 d
[10] = tested on: kochia (KCHSC, Kochia scoparia); experiment: Greenhouse postemergence trial, % visual injury; type: in vivo
Protocol: Following the protocol in Example 1, compound 1 and compound 2 were combined with 2,4 D EHE (EC) and applied to kochia (KCHSC, Kochia scoparia) and the phytotoxicity of the herbicidal compositions was measured.
Following the protocol in Example 1, compound 1 (EC) and Compound 2 (SC) were combined with diflufenzopyr and applied to kochia (Kochia scoparia, KCHSC) and the phytotoxicity of the herbicidal composition was measured.

[11] = tested on: ivyleaf morningglory (Ipomoea hederacea, IPOHE); experiment: Greenhouse postemergence trial, % visual injury
common rice (ORYSA) = experiment: Greenhouse postemergence trial, crop phytotoxicity (% visual injury); conditions: for % visual injury, Obs: ORYSA
[12] = tested on: sunflower (Helianthus annus, HELAN); experiment: Greenhouse postemergence trial, % visual injury; type: in vivo; conditions: for % visual injury Obs: 5 g ae/ha alone, 20-22 d
[13] = tested on: common chickweed (Stellaria media, STEME); experiment: Greenhouse postemergence trial, % visual injury; type: in vivo; conditions: for % visual injury Obs: 5 g ae/ha alone, 20-22 d
[14] = tested on: pigweed (AMARE, Amaranthus retroflexus); experiment: Greenhouse postemergence trial, % visual injury; type: in vivo; conditions: Amaranthus retroflexus, post-emergence; 5 g ae/ha alone; 20-22 d; read-out: % visual injury Obs
[15] = Euphorbia heterophylla, post-emergence
[16] = read-out: % visual injury (Obs)

SMILES | pest or weed control at 5 g/ha [1] [%] | % visual injury Obs [2] [%] | pest or weed control at 5 g/ha [3] [%] | plant injury at 5 g/ha [4] [%] | pest or weed control at 5 g/ha [5, 15] [%] | pest or weed control at 5 g/ha [6] [%] | % visual injury Obs (winter wheat (TRZAW)) [%] | % visual injury Obs (maize (ZEAMX)) [%] | % visual injury Obs [8] [%] | % visual injury Obs [9] [%] | % visual injury Obs [13] [%] | also measured
COC(=O)c1nc(-c2ccc3sccc3c2)c(F)c(N)c1Cl [compound 9] | 0 | 25 | 10 | 10 | 60 | 15 | 0 | 0 |  |  |  | 
COC(=O)c1nc(-c2ccc3ccoc3c2F)nc(N)c1OC [compound 12] | 5 |  | 10 | 50 | 35 | 18 | 0 | 0 | 10 | 0 |  | pest or weed control at 5 g/ha [7]: 84%
Nc1c(Cl)c(Cl)nc(C(=O)O)c1Cl [picloram-potassium, reference compound] |  |  |  |  |  |  |  |  |  |  |  | pest or weed control at 10 g/ha ([10]; Bassia scoparia, post-emergence, KCHSC, 10 g ae/ha, read-out: % visual injury, Obs): 0%; pest or weed control at 10 g/ha ([8]; Abutilon theophrasti, post-emergence, ABUTH, 10 g ae/ha, read-out: % visual injury, Obs): 35%; % visual injury, Obs ([1]; CYPES, 10 g ae/ha): 0%; % visual injury, Obs ([9]; SORVU, 10 g ae/ha): 0%; % visual injury, Obs ([3]; 10 g ae/ha): 60%; plant injury at 10 g/ha ([4]; read-out: % visual injury, Obs): 20%; pest or weed control at 10 g/ha ([5]; Euphorbia heterophylla, post-emergence, read-out: % visual injury, Obs, EPHHL, 10 g ae/ha): 20%; % visual injury, Obs ([6]; 10 g ae/ha): 0%; pest or weed control at 10 g/ha ([11]; Ipomoea, post-emergence, read-out: % visual injury, Obs, IPOHE, 10 g ae/ha): 40%; % visual injury, Obs (winter wheat (TRZAW); 10 g ae/ha): 0%; % visual injury, Obs (maize (ZEAMX); ZEAMX, 10 g ae/ha): 0%; % visual injury, Obs (common rice (ORYSA); 10 g ae/ha): 0%
C=C(F)c1c(C(=O)O)nc(-c2ccc3cc[nH]c3c2F)c(F)c1N [compound 15] | 25 | 30 | 15 |  | 73 | 33 | 5 | 0 | 30 | 0 |  | % visual injury Obs [12]: 90%
O=C(O)CCCOc1ccc(Cl)cc1Cl [2,4-DB DMA, 4-DB-dimethylammonium (2,4-DB DMA)] |  |  |  |  |  |  |  |  |  |  |  | % visual injury (Obs) ([10]; 2,4-DB DMA 400 g ae/ha): 10%; % visual injury (Obs) ([1]; 2,4-DB DMA 400 g ae/ha): 0%; % visual injury (Obs) ([2]; 2,4-DB DMA 400 g ae/ha): 60%; pest or weed control at 400 g/ha ([3]; read-out: % visual injury (Obs), 2,4-DB DMA 400 g ae/ha): 40%; plant injury at 400 g/ha [4, 16]: 70%; % visual injury (Obs) ([5]; 2,4-DB DMA 400 g ae/ha): 10%; % visual injury (Obs) ([11]; 2,4-DB DMA 400 g ae/ha): 70%; % visual injury (Obs) (winter wheat (TRZAW); 2,4-DB DMA 400 g ae/ha): 10%; % visual injury (Obs) (maize (ZEAMX); 2,4-DB DMA 400 g ae/ha): 0%; % visual injury (Obs) (common rice (ORYSA); 2,4-DB DMA 400 g ae/ha): 0%
COC(=O)c1nc(-c2ccc3cc[nH]c3c2F)c(F)c(/N=C/N(C)C)c1Cl [compound 13] | 0 | 25 | 10 |  | 75 | 25 |  |  | 0 |  | 50 | pest or weed control at 5 g/ha [7]: 60%
Cc1cc(Cl)ccc1OCC(=O)O [MCPA DMA, MCPA-dimethylammonium] |  |  |  |  |  |  |  |  |  |  |  | % visual injury, Obs ([13]; STEME, 400 g ae/ha): 20%; % visual injury, Obs ([3]; 400 g ae/ha): 65%; plant injury at 400 g/ha ([4]; read-out: % visual injury, Obs): 95%; % visual injury, Obs ([6]; 400 g ae/ha): 30%; % visual injury, Obs (winter wheat (TRZAW); 400 g ae/ha): 0%; % visual injury, Obs (common rice (ORYSA); 400 g ae/ha): 0%
O=C(O)COc1ccc(Cl)cc1Cl [2,4-D DMA, 2,4-D-dimethylammonium] |  |  |  |  |  |  |  |  |  |  |  | % visual injury (Obs) ([10]; 2,4-D DMA 400 g ae/ha): 10%; % visual injury (Obs) ([8]; 2,4-D DMA 400 g ae/ha): 75%; % visual injury (Obs) ([1]; 2,4-D DMA 400 g ae/ha): 30%; % visual injury (Obs) ([12]; 2,4-D DMA 400 g ae/ha): 80%; pest or weed control at 400 g/ha ([3]; read-out: % visual injury (Obs), 2,4-D DMA 400 g ae/ha): 70%; plant injury at 400 g/ha [4, 16]: 85%; % visual injury (Obs) ([6]; 2,4-D DMA 400 g ae/ha): 65%; % visual injury (Obs) ([11]; 2,4-D DMA 400 g ae/ha): 80%; % visual injury (Obs) (winter wheat (TRZAW); 2,4-D DMA 400 g ae/ha): 0%; % visual injury (Obs) (maize (ZEAMX); 2,4-D DMA 400 g ae/ha): 0%; % visual injury (Obs) (common rice (ORYSA); 2,4-D DMA 400 g ae/ha): 0%
Nc1c(F)c(-c2cc(F)c3[nH]ccc3c2)nc(C(=O)O)c1Cl [compound 14] |  |  | 5 | 10 | 20 | 10 | 0 | 0 | 0 | 0 |  | pest or weed control at 5 g/ha [7]: 15%; % visual injury Obs [12]: 10%
Nc1c(F)c(-c2ccc3ccoc3c2)nc(C(=O)O)c1Cl [compound 10] | 5 | 10 | 15 | 15 | 75 | 25 | 5 |  | 15 | 5 | 70 | 
COC(=O)c1nc(-c2ccc3scnc3c2)c(F)c(N)c1Cl [compound 8] |  |  | 30 | 63 | 84 | 10 | 5 |  | 20 |  | 45 | pest or weed control at 5 g/ha [14]: 78%
C/C(=N\NC(=O)Nc1cc(F)cc(F)c1)c1ncccc1C(=O)O [diflufenzopyr] |  |  |  |  |  |  |  |  |  |  |  | % visual injury, Obs. ([10]; KCHSC, diflufenzopyr 3.5 g ae/ha, Table 60): 0%; % visual injury, Obs. ([10]; KCHSC, diflufenzopyr 3.5 g ae/ha, Table 61): 0%; % visual injury, Obs. ([10]; KCHSC, diflufenzopyr 7 g ae/ha, Table 60): 0%; % visual injury, Obs. ([10]; KCHSC, diflufenzopyr 7 g ae/ha, Table 61): 0%
COc1c(N)nc(-c2ccc3sccc3c2)nc1C(=O)O [compound 11] | 0 | 10 | 5 | 10 | 25 | 10 | 10 |  |  | 5 | 40 | 
